Measured values published in paper PMC11874007, “Switching Roles—Exploring Concentration-Dependent Agonistic versus Antagonistic Behavior of Integrin Ligands” (Journal of Medicinal Chemistry, 2025).

What was measured:
[1] = system: HN cells; assay: Cell adhesion in the presence of ligand, HN cells; assay type: cell-based; settings: both concentrations (1 nM, 1 μM), 48 h
Experimental: Figure 10 (A) Effect of integrin ligands on cancer cell migration. […] Microscopical measurements of wound gaps were taken directly after setting the wound scratch and then after 9, 24, 48, and 72 h, respectively. Wound scratch assays were repeated at least three times. The extent of wound gap closure [%]/cell coverage was calculated by a python script utilizing Canny’s Edge Detection algorithm as described under Materials and summarized in the corresponding histograms (see also Scheme S5 in the Supporting Information). (B) Adhesion of M21, OV-MZ-6, and HN cells in the presence of the respective integrin targeting ligand at low (1 nM) and high (1 μM) concentrations. […] Depicted are typical microscopical images of the respective cell monolayers.

[2] = system: FAK, p-FAK, p44/42erk-1/2 in αvβ6+ HN cells; assay: Western blot of FAK and p44/42erk-1/2 expression and activation, HN cells; assay type: cell-based
Experimental: Since agonistic ligand performance requires integrin activation and signaling, by Western blot analysis, we studied whether the different ligands alter the expression levels and activation states of FAK and p44/42^(erk-1/2). For this, the respective target integrin-expressing tumor cell types were incubated with the corresponding subtype-selective ligand at a concentration of 1 μM for 24 h (Figure 8). […] Signal intensities of FAK and p44/42^(erk-1/2) expression and activation (p-FAK and p-p44/42^(erk-1/2)) on Western blots were evaluated by densitometry. Data are depicted as GAPDH-normalized fluorescence signal intensities as n-fold, by setting values obtained for the respective untreated cells to “1”. […] MAPK p44/42^(erk-1/2) expression was approximately 2.2-fold augmented, p44/42^(erk-1/2) by approximately 2.5-fold. It also raised activation of p-FAK and p-p44/42^(erk-1/2) by approximately 2.2-fold and 3.1-fold, respectively, in α5β1+ OV-MZ-6 cells. […] Additionally, it raised FAK (approximately 1.7-fold) and p-p44/42^(erk-1/2) (approximately 2.4-fold) in α5β1+ OV-MZ-6 cells.
Figure 8 Effects of ligands on cellular expression and activation of integrin-related signaling molecules FAK and p44/42^(erk-1/2). […] Signal intensities for FAK and p-FAK, respectively, were evaluated by use of the Bio-Rad Imager Gel Doc XR+ and a ChemiDoc XRS+ Systems and the software Image Lab. Shown are typical representative Western blot images and the corresponding histograms depicting GAPDH-normalized signal intensities as n-fold by setting the values obtained for untreated cells to “1” (drawn as black line). For each cell line, cutouts of identical gels are depicted.
In order to capture early and transient changes in signaling activation following ligand treatment, we next reduced the observation periods to 5, 30, or 60 min and assessed FAK expression and activation. […] Depicted are typical Western blot images and the corresponding densitometrical evaluations of GAPDH-normalized signal intensities as n-fold, by setting that of the respective untreated cell type to “1” (Figure 9). […]

[3] = target: T1, human αvβ3-integrin (Homo sapiens, UniProt P05106+P06756); settings: previously published values; cited from earlier work
T1 construct: purchased R&D 3050-AV-050
T1 sequence (P06756 31-992 limits assumed): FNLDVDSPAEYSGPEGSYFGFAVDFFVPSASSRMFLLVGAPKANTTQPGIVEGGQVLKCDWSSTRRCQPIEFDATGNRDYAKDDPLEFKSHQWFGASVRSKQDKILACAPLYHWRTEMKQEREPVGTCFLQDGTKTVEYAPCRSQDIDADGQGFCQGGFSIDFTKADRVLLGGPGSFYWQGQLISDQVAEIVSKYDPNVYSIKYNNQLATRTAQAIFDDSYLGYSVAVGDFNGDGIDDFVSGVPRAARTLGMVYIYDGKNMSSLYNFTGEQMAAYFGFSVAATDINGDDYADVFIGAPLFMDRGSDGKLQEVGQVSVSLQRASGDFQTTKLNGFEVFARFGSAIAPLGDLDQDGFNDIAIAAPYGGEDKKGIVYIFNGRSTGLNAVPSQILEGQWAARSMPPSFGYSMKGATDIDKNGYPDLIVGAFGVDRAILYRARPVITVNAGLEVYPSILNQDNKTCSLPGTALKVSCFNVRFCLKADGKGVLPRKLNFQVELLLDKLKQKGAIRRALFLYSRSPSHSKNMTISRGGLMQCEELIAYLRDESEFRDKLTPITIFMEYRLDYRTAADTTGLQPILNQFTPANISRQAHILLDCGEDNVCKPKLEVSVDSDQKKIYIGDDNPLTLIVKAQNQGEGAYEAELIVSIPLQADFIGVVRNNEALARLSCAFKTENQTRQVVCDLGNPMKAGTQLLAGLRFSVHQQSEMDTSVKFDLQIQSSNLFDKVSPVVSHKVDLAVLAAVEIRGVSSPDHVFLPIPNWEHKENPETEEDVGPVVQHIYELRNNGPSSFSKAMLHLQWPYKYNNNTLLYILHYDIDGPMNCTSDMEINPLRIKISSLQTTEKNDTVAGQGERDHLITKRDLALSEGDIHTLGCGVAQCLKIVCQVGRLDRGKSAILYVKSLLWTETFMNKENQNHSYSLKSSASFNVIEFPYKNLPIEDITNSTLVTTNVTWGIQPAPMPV
T1 sequence (P05106 27-718 limits assumed): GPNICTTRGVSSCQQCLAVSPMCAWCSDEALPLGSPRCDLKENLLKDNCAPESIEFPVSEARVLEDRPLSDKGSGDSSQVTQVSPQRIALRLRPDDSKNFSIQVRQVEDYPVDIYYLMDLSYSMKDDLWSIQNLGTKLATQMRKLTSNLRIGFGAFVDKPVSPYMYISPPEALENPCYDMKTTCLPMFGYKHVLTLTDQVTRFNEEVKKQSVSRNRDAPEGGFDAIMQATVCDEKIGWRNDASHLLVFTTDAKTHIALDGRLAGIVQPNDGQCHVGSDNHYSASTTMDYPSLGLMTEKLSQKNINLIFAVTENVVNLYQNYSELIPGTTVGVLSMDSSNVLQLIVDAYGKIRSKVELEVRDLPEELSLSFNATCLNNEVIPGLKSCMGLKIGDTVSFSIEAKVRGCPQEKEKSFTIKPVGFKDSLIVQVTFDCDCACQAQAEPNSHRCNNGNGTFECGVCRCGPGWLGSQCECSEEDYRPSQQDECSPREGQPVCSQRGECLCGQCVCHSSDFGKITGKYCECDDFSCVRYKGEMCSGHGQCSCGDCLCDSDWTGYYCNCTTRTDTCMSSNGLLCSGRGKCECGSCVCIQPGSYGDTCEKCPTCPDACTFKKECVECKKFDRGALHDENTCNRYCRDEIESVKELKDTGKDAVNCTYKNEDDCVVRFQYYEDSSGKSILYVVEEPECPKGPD

[4] = system: αvβ6+ HN cells; assay: Wound scratch cell migration assay, HN cells; assay type: cell-based; settings: at either concentration (1 nM, 1 μM)
Experimental: As a biological readout for integrin signaling, we analyzed ligand effects on cell adhesion and migration by wound scratch assays (Figure 10A,B). […] Microscopical images were taken directly after wounding the cell monolayers and then after 9, 24, 48, and 72 h, respectively.
Figure 10 (A) Effect of integrin ligands on cancer cell migration. […] Microscopical measurements of wound gaps were taken directly after setting the wound scratch and then after 9, 24, 48, and 72 h, respectively. Wound scratch assays were repeated at least three times. The extent of wound gap closure [%]/cell coverage was calculated by a python script utilizing Canny’s Edge Detection algorithm as described under Materials and summarized in the corresponding histograms (see also Scheme S5 in the Supporting Information). (B) Adhesion of M21, OV-MZ-6, and HN cells in the presence of the respective integrin targeting ligand at low (1 nM) and high (1 μM) concentrations. […]
The assays were performed according to a modified protocol as previously published.[94] […] The smoothened images were then filtered by a Sobel kernel[98] and the magnitude and direction of the intensity gradient of the images calculated. […] The resulting images were then segmented and binarized by use of a grid filter and analyzed with respect to cell-covered area relative to the start image of each series.

For c(FRGDLAFp(NMe)K) [L3], the Adhesive phenotype [1] was “not changed”, the “Modulation of signaling molecules (FAK, p44/42erk-1/2)” value ([2]; 1 μM, 24 h, in either cell type) was “not effective in modulating signaling molecules” and the “p-FAK, elevated levels within 30 min” value ([2]; HN cells, 1 nM) was “approximately five”. The “FAK expression versus untreated cells” value ([2]; HN cells, both concentrations (1 nM, 1 μM), within 60 min) was “slight increase”, the IC50 [3] was over 1000 nM and the “Effect on cell migration” value [4] was “neither antagonistic nor agonistic effects”.
